Changes are numbered by the printed parent chain. Like-named read-outs stand apart in the source and are kept apart here.
What was measured:
Type in all cases: cell-based
[1] = biological target: T1, F876L mutant Androgen Receptor (AR-F876L) (Homo sapiens, UniProt P10275, F877L); test: LNCaP-AR-F876L ANT reporter assay (ARE firefly luciferase, antagonist mode); details: for Emax: read-out: LNCaP-AR-F876L ANT MAX % Inh; for IC50: read-out: LNCaP-AR-F876L ANT pIC50 (converted)
T1 construct: expressed in transfected cells; host or cells: LNCaP (LNCaP F876L)
T1 sequence (P10275 1-920 F877L): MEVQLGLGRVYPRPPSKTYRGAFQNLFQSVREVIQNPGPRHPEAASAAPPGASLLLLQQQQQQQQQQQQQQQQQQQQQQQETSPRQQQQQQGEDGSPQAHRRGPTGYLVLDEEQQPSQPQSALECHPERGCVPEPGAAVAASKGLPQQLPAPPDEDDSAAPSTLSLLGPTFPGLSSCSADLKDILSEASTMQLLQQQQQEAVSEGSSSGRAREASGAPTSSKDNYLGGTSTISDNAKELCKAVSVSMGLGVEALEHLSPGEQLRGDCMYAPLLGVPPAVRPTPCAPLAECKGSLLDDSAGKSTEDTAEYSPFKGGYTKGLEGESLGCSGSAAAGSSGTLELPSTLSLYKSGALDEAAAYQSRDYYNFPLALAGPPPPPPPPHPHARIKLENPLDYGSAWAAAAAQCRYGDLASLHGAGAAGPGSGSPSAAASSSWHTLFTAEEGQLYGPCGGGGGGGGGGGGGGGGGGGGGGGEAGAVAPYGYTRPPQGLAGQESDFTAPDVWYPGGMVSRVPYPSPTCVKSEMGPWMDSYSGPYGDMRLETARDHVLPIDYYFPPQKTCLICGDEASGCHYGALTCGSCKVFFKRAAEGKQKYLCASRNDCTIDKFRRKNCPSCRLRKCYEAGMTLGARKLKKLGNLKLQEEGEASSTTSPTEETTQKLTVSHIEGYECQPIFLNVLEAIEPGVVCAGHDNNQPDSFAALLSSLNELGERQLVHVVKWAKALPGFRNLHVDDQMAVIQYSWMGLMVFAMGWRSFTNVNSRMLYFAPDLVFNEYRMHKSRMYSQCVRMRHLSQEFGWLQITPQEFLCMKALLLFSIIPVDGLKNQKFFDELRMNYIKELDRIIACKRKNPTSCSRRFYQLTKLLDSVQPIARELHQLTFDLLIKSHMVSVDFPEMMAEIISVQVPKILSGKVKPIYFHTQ
Procedure, shortened: (§1)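 LNCaP stable pooled lines expressing ARE-firefly luciferase, in charcoal-stripped serum medium, were exposed to compounds; antagonist mode used agonist at 400 pM (WT) or 600 pM (F876L).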

[2] = biological target: T2, wild-type Androgen Receptor (AR-wt) (Homo sapiens, UniProt P10275); test: LNCaP-AR-wt AG reporter assay (ARE firefly luciferase, agonist mode); details: for Emax: read-out: LNCaP-AR-wt AG MAX % Stim
T2 construct: expressed in transfected cells; host or cells: LNCaP (LNCaP AR (cs))
T2 sequence (P10275 1-920): T1 sequence (P10275 1-920 F877L) with L877F
Procedure, shortened: as §1

[3] = biological target: T2, wild-type Androgen Receptor (AR-wt); test: LNCaP-AR-wt ANT reporter assay (ARE firefly luciferase, antagonist mode); details: for IC50: antagonist mode, 400 pM R-1881 challenge, −Log10(IC50 [Molar]), read-out: LNCaP-AR-wt ANT pIC50 (converted); for Emax: read-out: LNCaP-AR-wt ANT MAX % Inh
Procedure, shortened: as §1

[4] = biological target: T1, F876L mutant Androgen Receptor (AR-F876L); test: LNCaP-AR-F876L AG reporter assay (ARE firefly luciferase, agonist mode); details: for Emax: read-out: LNCaP-AR-F876L AG MAX % Stim
Procedure, shortened: as §1

[5] = maximum % inhibition of R1881 control response over tested concentration range
[6] = agonist mode, −Log10(EC50 [Molar]), read-out: LNCaP-AR-wt AG pEC50 (converted)
[7] = maximum % stimulation (agonist response) over tested concentration range
[8] = agonist mode, −Log10(EC50 [Molar]), read-out: LNCaP-AR-F876L AG pEC50 (converted)

Structure (SMILES)	Emax [1, 5] [%]	IC50 [1] [nM]	EC50 [2, 6] [nM]	Emax [2, 7] [%]	IC50 [3] [nM]	Emax [3, 5] [%]	EC50 [4, 8] [nM]	Emax [4, 7] [%]	Emax [2] [%]	Emax [4] [%]	Emax [1] [%]	EC50 [2] [nM]	Emax [3] [%]	EC50 [4] [nM]
COc1cc(F)ccc1N1C(=S)N(c2cnc(C#N)c(C(F)(F)F)c2)C(=O)C12CCC2 [Cpd 94, 5-[8-(4-fluoro-2-methoxy-phenyl)-5-oxo-7-thioxo-6,8-diazaspiro[3.4]octan-6-yl]-3-(trifluoromethyl)pyridine-2-carbonitrile]	99.2	631	> 15100	6	724	95	> 15100	1.5	–	–	–	–	–	–
N#Cc1ncc(N2C(=O)C3(CCC3)N(c3ccc(C(=O)NCc4cccc(Cl)c4)c(F)c3)C2=S)cc1C(F)(F)F [Cpd 95, N-[(3-chlorophenyl)methyl]-4-[6-[6-cyano-5-(trifluoromethyl)-3-pyridyl]-5-oxo-7-thioxo-6,8-diazaspiro[3.4]octan-8-yl]-2-fluoro-benzamide]	92.3	1050	> 15100	0.2	794	96.1	> 15100	1.5	–	–	–	–	–	–
N#Cc1ncc(N2C(=O)C3(CCC3)N(c3ccc(C(=O)NCCc4cccnc4)c(F)c3)C2=S)cc1C(F)(F)F [Cpd 96, 4-[6-[6-cyano-5-(trifluoromethyl)-3-pyridyl]-5-oxo-7-thioxo-6,8-diazaspiro[3.4]octan-8-yl]-2-fluoro-N-[2-(3-pyridyl)ethyl]benzamide]	100	347	> 15100	1.5	407	101	> 15100	0.8	–	–	–	–	–	–
N#Cc1ncc(N2C(=O)C3(CCC3)N(c3ccc(C(F)(F)F)cc3)C2=S)cc1C(F)(F)F [Cpd 98, 5-[5-oxo-7-thioxo-8-[4-(trifluoromethyl)phenyl]-6,8-diazaspiro[3.4]octan-6-yl]-3-(trifluoromethyl)pyridine-2-carbonitrile]	98.9	245	> 15100	0	295	102	> 15100	1.6	–	–	–	–	–	–
Cc1cc(N2C(=O)C3(CCC3)N(c3ccc(C4CCOCC4)cc3)C2=S)cnc1C#N [Cpd 101, 3-methyl-5-[5-oxo-8-(4-tetrahydropyran-4-ylphenyl)-7-thioxo-6,8-diazaspiro[3.4]octan-6-yl]pyridine-2-carbonitrile]	–	363	–	–	479	–	–	–	1.1	1.7	95.3	> 15100	99.4	> 15100
N#Cc1ncc(N2C(=O)C3(CCC3)N(c3ccc(Oc4ccccn4)cc3)C2=S)cc1C(F)(F)F [Cpd 103, 5-[5-oxo-8-[4-(2-pyridyloxy)phenyl]-7-thioxo-6,8-diazaspiro[3.4]octan-6-yl]-3-(trifluoromethyl)pyridine-2-carbonitrile]	–	107	–	–	562	–	–	–	4	2	64.9	> 15100	29	> 15100

Continued, in another order:

Emax [1, 5] [%]	IC50 [1] [nM]	EC50 [2, 6] [nM]	Emax [2, 7] [%]	IC50 [3] [nM]	Emax [3, 5] [%]	EC50 [4, 8] [nM]	Emax [4, 7] [%]	Structure (SMILES)	Emax [2] [%]	Emax [4] [%]	Emax [1] [%]	EC50 [2] [nM]	Emax [3] [%]	EC50 [4] [nM]
99.6	676	> 15100	–	912	100	> 15100	–	N#Cc1ncc(N2C(=O)C3(CCC3)N(c3cccc(OC(F)(F)F)c3)C2=S)cc1C(F)(F)F [Cpd 97, 5-[5-oxo-7-thioxo-8-[3-(trifluoromethoxy)phenyl]-6,8-diazaspiro[3.4]octan-6-yl]-3-(trifluoromethyl)pyridine-2-carbonitrile]	0.7	1.6	–	–	–	–
85.9	389	> 15100	–	417	97.2	> 15100	–	N#Cc1ncc(N2C(=O)C3(CCC3)N(c3ccc(Oc4ccccc4)cc3)C2=S)cc1C(F)(F)F [Cpd 99, 5-[5-oxo-8-(4-phenoxyphenyl)-7-thioxo-6,8-diazaspiro[3.4]octan-6-yl]-3-(trifluoromethyl)pyridine-2-carbonitrile]	1.6	1.6	–	–	–	–
97.2	257	> 15100	1.8	417	102	> 15100	1.7	COCCOc1ccc(N2C(=S)N(c3cnc(C#N)c(C)c3)C(=O)C23CCC3)cc1F [Cpd 100, 5-[8-[3-fluoro-4-(2-methoxyethoxy)phenyl]-5-oxo-7-thioxo-6,8-diazaspiro[3.4]octan-6-yl]-3-methyl-pyridine-2-carbonitrile]	–	–	–	–	–	–
99.6	501	> 15100	0.9	646	101	> 15100	1.9	N#Cc1ncc(N2C(=O)C3(CCC3)N(c3ccc(F)cc3)C2=S)cc1C(F)(F)F [Cpd 102, 5-[8-(4-fluorophenyl)-5-oxo-7-thioxo-6,8-diazaspiro[3.4]octan-6-yl]-3-(trifluoromethyl)pyridine-2-carbonitrile]	–	–	–	–	–	–
98.4	12	> 15100	2.7	129	99.7	> 15100	2.2	Cc1cc(N2C(=O)C3(CCC3)N(c3ccc(-c4cncc(F)c4)cc3)C2=S)cnc1C#N [Cpd 104, 5-[8-[4-(5-fluoro-3-pyridyl)phenyl]-5-oxo-7-thioxo-6,8-diazaspiro[3.4]octan-6-yl]-3-methyl-pyridine-2-carbonitrile]	–	–	–	–	–	–
95.3	490	> 15100	1.2	575	95.7	> 15100	2.3	N#Cc1ncc(N2C(=O)C3(CCC3)N(c3ccc(OCCN4CCNCC4)c(F)c3)C2=S)cc1C(F)(F)F [Cpd 105, 5-[8-[3-fluoro-4-(2-piperazin-1-ylethoxy)phenyl]-5-oxo-7-thioxo-6,8-diazaspiro[3.4]octan-6-yl]-3-(trifluoromethyl)pyridine-2-carbonitrile]	–	–	–	–	–	–

— patent US20180008587A1, “THIOHYDANTOIN ANDROGEN RECEPTOR ANTAGONISTS FOR THE TREATMENT OF CANCER” (Jaressen Pharmaceutica NV, priority 2016, published 2018)
